# Results taken from patent US4199598A, “Method of treating noradrenaline dysfunction or for dopamine-β-hydroxylase inhibition” (Richter Gedeon Vegyeszeti Gyar Rt., priority 1976, dated 1980).
# How the values were obtained:
# dopamine-β-hydroxylase [1] = conditions: in words, prior art; cited from earlier work
# dopamine-β-hydroxylase [2] = assay: Noradrenaline, dopamine, serotonine and 5-hydroxy-indolylacetic acid contents of cerebrum (dopamine-β-hydroxylase inhibiting effect); type: in vivo, male Wister rats; conditions: Rattus norvegicus, ip
# Experimental: (§1) The dopamine-β-hydroxylase inhibiting effects of the compounds according to the invention were examined by the following tests:
# (§2) The tests were performed on male Wister rats weighing 150 to 200 g. The dopamine-β-hydroxylase inhibiting effects of the compounds were evaluated by determining the change of noradrenaline, dopamine and adrenaline levels of the cerebrum, heart, spleen and adrenal gland. The serotonine and 5-hydroxy-indolyl-acetic acid levels of the cerebrum were also determined. The measurements were performed as follows:
# (§3) The animals were decapitated, the cerebrum, heart, spleen and adrenal gland were removed quickly, and the organs were frozen by placing them onto a metal sheet cooled with dry ice. The frozen organs were stored for a maximum of one night at -20° C.
# (§4) Noradrenaline was determined according to the method of Shellenberger et al (Anal. Biochem., Vol. 39, p. 356, 1971), with the following modifications of the basic procedure: 0.5 ml of 0.1 molar Na-K-phosphate buffer, containing 9 g/l of EDTA-Na2, were added to 0.5 ml of the eluate, and the catecholamines (noradrenaline in the examination of heart and spleen and noradrenaline and dopamine in the examination of the cerebrum) were oxidized with 0.1 ml of a 0.1 N iodine solution in 5% potassium iodide. […] Thereafter the samples were placed for 5 minutes in a drying oven heated to 100° C., and then the samples were cooled with ice water. The fluorescence of noradrenaline was measured with an OPTON spectrophotometer at wavelengths of 390 nm (excitation) and 490 nm (emission).
# Determination of the noradrenaline, dopamine, serotonine and 5-hydroxy-indolylacetic acid contents of cerebrum
# The brains were homogenized in 10 parts by volume of 0.4 N perchloric acid. The homogenized mixture was stored at -20° C. overnight; thereafter it was thawed and centrifuged as described above. A sample of homogenized mixture corresponding to 0.5 g of brain was removed, the pH of the sample was adjusted to 8.0±0.1 with 0.1 molar tris-buffer of the above composition, and the sample was processed as described above for the determination of the noradrenaline content of heart and spleen, with the difference that 1.5 ml of 0.05 N perchloric acid were applied as eluting agent. 0.5 ml of the eluate were applied to determine the noradrenaline and dopamine content. The measurement was performed as described above, with the difference that samples of 0.5 ml were applied for the recording of the fluorescence of noradrenaline. The residue was placed for 50 minutes into a drying oven heated to 100° C.; thereafter the sample was cooled with ice water, and the fluorescence of dopamine was recorded at wavelengths of 325 nm (excitation) and 380 nm (emission).
# In a further test series the serotonine and 5-hydroxy-indolylacetic acid contents were also determined, in addition to the determination of the noradrenaline and dopamine contents, from the same sample. In this instance the brains were homogenized in 10 ml of 75% ethanol, 0.2 ml of EDTA-Na2 and 5% of ascorbic acid were added to the homogenized mixtures, and the homogenized mixtures were maintained at -20° C. overnight. The mixtures were then centrifuged as described above, and 5.0 ml samples of the supernatant were removed. The samples were diluted with equal volumes of distilled water, and poured onto ion-exchange columns of 0.5×1.5 cm dimensions, filled with buffered Amberlite CG-30 (200 to 400 mesh). The columns were washed with 5 ml of distilled water followed with 1.0 ml of 0.2 N hydrochloric acid, and the first effluent and the aqueous wash were collected for the determination of 5-hydroxy-indolylacetic acid. Elution was continued with further 1.2 ml of 0.2 N hydrochloric acid in order to remove noradrenaline, dopamine and serotonine. Samples of 0.3 ml were used for the determinations. […]
# dopamine-β-hydroxylase [3] = assay: Noradrenaline content of spleen (dopamine-β-hydroxylase inhibiting effect); type: in vivo, male Wister rats; conditions: Rattus norvegicus, ip, read-out: Amine level, spleen NA (noradrenaline)
# Experimental: as §1, §2, §3
# (§5) Determination of the noradrenaline content of heart and spleen
# (§6) The organs were weighed in frozen state and then homogenized in 5.0 ml of 0.4 N perchloric acid containing 0.05% of EDTA-Na2 and 0.1% of Na2 S2 O5. The homogenized mixtures were centrifuged as described above for the treatment of adrenal gland, the supernatants were decanted, and the pH was adjusted to 8.0±0.1 with a 0.1 molar tris buffer containing 20 g/l of NaOH and 25 g/l of EDTA-Na2. 100 mg of prepared Al2 O3 (Anton et al: J. Pharm. Ther., Vol. 138, p. 360, 1962) were added to the samples, and the mixtures were shaken mechanically for 20 minutes. Thereafter the Al2 O3 were washed with 2.10 ml of distilled water, and the noradrenaline was eluted with 1.0 ml of 0.05 N perchloric acid. 0.5 ml samples of the eluate were applied for the determination of noradrenaline.
# as §4
# (§7) In the tests disulfiram, 2,2-dipyridyl, bis(1-methyl-4-homopiperazinyl-thiocarbonyl)-disulfide, sodium diethyldithiocarbamate and N-phenyl-N'-(2-thiazolyl)-thiourea were used as reference substances. The values indicated in Table 1 are percentages in relation to the amine levels of the controls measured in the same tests (± Standard Error). The statistical calculations were performed on a TPA/i type computer, using Student's test.
# dopamine-β-hydroxylase [4] = assay: Adrenaline content of adrenal gland (dopamine-β-hydroxylase inhibiting effect); type: in vivo, male Wister rats; conditions: Rattus norvegicus, ip, read-out: Amine level, adrenal gland AD (adrenaline)
# Experimental: as §1, §2, §3
# Determination of the adrenaline content of adrenal gland
# The adrenal glands were freed from fat and homogenized in 3.0 ml of ice-cold 0.4 N perchloric acid. The homogenized mixtures were centrifuged for 10 minutes at 0° C. with a speed of 3200 r.p.m. on a Janetzky K-70 type centrifuge. 0.05 ml samples were taken from the supernatant, and the adrenaline level was determined directly by the method of Laverty et al (Anal. Biochem., Vol. 22, p. 269, 1968).
# as §7
# dopamine-β-hydroxylase [5] = assay: Noradrenaline content of heart (dopamine-β-hydroxylase inhibiting effect); type: in vivo, male Wister rats; conditions: Rattus norvegicus, ip, read-out: Amine level, heart NA (noradrenaline)
# Experimental: as §1, §2, §3, §5, §6, §4, §7
# in vivo = conditions: mouse, ip
# [6] = rats, i.p., 4 hours, ± Standard Error, read-out: Amine level, cerebrum DA (dopamine)
# [7] = rats, i.p., 4 hours, ± Standard Error, read-out: Amine level, cerebrum NA (noradrenaline)
# [8] = rats, i.p., 4 hours, ± Standard Error, read-out: Amine level, cerebrum SE (serotonine)
# [9] = rats, i.p., 200 mg/kg, 4 hours, ± Standard Error, read-out: Amine level, cerebrum DA (dopamine)
# [10] = rats, i.p., 200 mg/kg, 4 hours, ± Standard Error, read-out: Amine level, cerebrum NA (noradrenaline)
# [11] = rats, i.p., 200 mg/kg, 4 hours, ± Standard Error, read-out: Amine level, cerebrum SE (serotonine)
# [12] = rats, i.p., 4 hours, ± Standard Error
# [13] = rats, i.p., 200 mg/kg, 4 hours, ± Standard Error
# [14] = 4 h, read-out: Amine level, cerebrum DA (dopamine)
# [15] = 4 h, read-out: Amine level, cerebrum NA (noradrenaline)
# [16] = 4 h, read-out: Amine level, cerebrum SE (serotonine)
SMILES,response vs control in vivo at 100 mg/kg (dopamine-β-hydroxylase [2]; [6]) [%],response vs control in vivo at 100 mg/kg (dopamine-β-hydroxylase [2]; [7]) [%],response vs control in vivo at 100 mg/kg (dopamine-β-hydroxylase [2]; [8]) [%],response vs control in vivo at 200 mg/kg (dopamine-β-hydroxylase [2]; [9]) [%],response vs control in vivo at 200 mg/kg (dopamine-β-hydroxylase [2]; [10]) [%],response vs control in vivo at 200 mg/kg (dopamine-β-hydroxylase [2]; [11]) [%],response vs control in vivo at 100 mg/kg (dopamine-β-hydroxylase [3]; [12]) [%],response vs control in vivo at 200 mg/kg (dopamine-β-hydroxylase [3]; [13]) [%],response vs control in vivo at 100 mg/kg (dopamine-β-hydroxylase [4]; [12]) [%],response vs control in vivo at 200 mg/kg (dopamine-β-hydroxylase [4]; [13]) [%],response vs control in vivo at 100 mg/kg (dopamine-β-hydroxylase [5]; [12]) [%],response vs control in vivo at 200 mg/kg (dopamine-β-hydroxylase [5]; [13]) [%],also measured
NOCc1ccccc1 [Benzyloxyamine],,,,,,,,,,,,,dopamine-β-hydroxylase inhibiting effects (dopamine-β-hydroxylase [1]): exert dopamine-β-hydroxylase inhibiting effects; duration of activity (dopamine-β-hydroxylase [1]): exert their activities for a short period
"COCCNC1=C(C(=S)S)CCC1 [Compound M-1, 2-(N-methoxyethyl)-amino-cyclopent-1-ene-dithiocarboxylic acid]",107 ± 4.7,63.4 ± 3.6,116 ± 4.7,122 ± 6.7,64.2 ± 3.4,107 ± 2.7,77.1 ± 8.9,110 ± 14.1,106 ± 6.1,91.5 ± 4.7,106 ± 10.3,110 ± 7.4,"response vs control in vivo at 200 mg/kg (dopamine-β-hydroxylase [2]; rats, i.p., 200 mg/kg, 4 hours, ± Standard Error, read-out: Level, cerebrum 5-HIAA (5-hydroxy-indolylacetic acid)): 141 ± 12.3%; LD50 (in vivo): ~400 mg/kg"
"C=CCNC1=C(C(=S)S)CCC1 [Compound M-2, 2-(N-allyl)-amino-cyclopent-1-ene-dithiocarboxylic acid]",108 ± 2.9,78.6 ± 3.3,118 ± 5.7,119 ± 7,71.1 ± 3.9,109 ± 5.9,74.5 ± 10.2,89.9 ± 11,103 ± 7.6,71.9 ± 4.7,81.3 ± 5.1,123 ± 11.9,LD50 (in vivo): ~500 mg/kg
"CC(C)CCNC1=C(C(=S)S)CCC1 [Compound M-3, 2-(N-isoamyl)-amino-cyclopent-1-ene-dithiocarboxylic acid]",103 ± 4.1,75.2 ± 1.7,108 ± 5.7,114 ± 2.7,68.8 ± 2.4,98.2 ± 3.9,48.2 ± 9.5,135 ± 17,86.2 ± 4.5,73.5 ± 2.2,86.9 ± 5.9,131 ± 4.4,
"S=C(Nc1ccccc1)Nc1nccs1 [Compound U-14624, N-phenyl-N'-(2-thiazolyl)-thiourea, reference compound]",,,,,,,,,,,,,"response vs control in vivo at 200 mg/kg (dopamine-β-hydroxylase [2]; [14]): 121%; response vs control in vivo at 200 mg/kg (dopamine-β-hydroxylase [2]; [15]): 31.6%; response vs control in vivo at 200 mg/kg (dopamine-β-hydroxylase [2]; [16]): 137%; response vs control in vivo at 200 mg/kg (dopamine-β-hydroxylase [2]; 4 h, read-out: Level, cerebrum 5-HIAA (5-hydroxy-indolylacetic acid)): 175%; response vs control in vivo at 200 mg/kg (dopamine-β-hydroxylase [3]; 4 h): 111%; response vs control in vivo at 200 mg/kg (dopamine-β-hydroxylase [4]; 4 h): 72%; response vs control in vivo at 200 mg/kg (dopamine-β-hydroxylase [5]; 4 h): 106%"
"CCN(CC)C(=S)S [DDC-Na, sodium diethyldithiocarbamate, reference compound]",,,,,,,,,,,,,response vs control in vivo at 400 mg/kg (dopamine-β-hydroxylase [2]; [14]): 120%; response vs control in vivo at 400 mg/kg (dopamine-β-hydroxylase [2]; [15]): 64.1%
"CCN(CC)C(=S)SSC(=S)N(CC)CC [DS, bis(diethylthiocarbamoyl)-disulfide, reference compound]",,,,,,,,,,,,,response vs control in vivo at 200 mg/kg (dopamine-β-hydroxylase [2]; [14]): 111%; response vs control in vivo at 400 mg/kg (dopamine-β-hydroxylase [2]; [14]): 112%; response vs control in vivo at 200 mg/kg (dopamine-β-hydroxylase [2]; [15]): 22.5%; response vs control in vivo at 400 mg/kg (dopamine-β-hydroxylase [2]; [15]): 24.1%; response vs control in vivo at 200 mg/kg (dopamine-β-hydroxylase [2]; [16]): 122%; response vs control in vivo at 400 mg/kg (dopamine-β-hydroxylase [2]; [16]): 117%; dopamine-β-hydroxylase inhibiting effects (dopamine-β-hydroxylase [1]): strong dopamine-β-hydroxylase inhibiting effects; response vs control in vivo at 200 mg/kg (dopamine-β-hydroxylase [4]; 4 h): 52%; response vs control in vivo at 400 mg/kg (dopamine-β-hydroxylase [4]; 4 h): 66%; response vs control in vivo at 200 mg/kg (dopamine-β-hydroxylase [5]; 4 h): 98%; response vs control in vivo at 400 mg/kg (dopamine-β-hydroxylase [5]; 4 h): 102%
